Measured values taken from US20130029970A1 (priority 2009, published 2013).
pEC50, pIC50: −log10 of the molar value. Where two headings read alike, the source gives them in different places.

Assays:
human CB2 (hCB2) = target: T1, human CB2 (hCB2) (Homo sapiens, UniProt P34972); assay: 35S GTPγS binding assay, hCB2 agonist; type: biochemical
T1 construct: (cDNA clone) CNR0200000
Summary of the method: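 Membranes (5 μg) from cells transfected with hCB2 cDNA in pcDNA3.1+ incubated with SPA beads, 0.1 nM [35S]GTPγS and 20 uM GDP in 50 mM HEPES pH 7.4, 100 mM NaCl, 5 mM MgCl2, 0.001% saponin, ± test compound. Incubation 90 min at room temperature; bound label read by scintillation counting.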

human CB1 receptors = target: T2, human CB1 receptors (Homo sapiens, UniProt P21554); assay: cAMP assay in HEK-293 cells, hCB1 agonist; type: cell-based
T2 construct: (cDNA clone) CNR01L000
Summary of the method: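 Stable hCB1 HEK-293 cells suspended in HBSS with 10 mM HEPES and 0.1% fatty acid-free BSA, incubated 30 min at 37° C. with compound plus forskolin (90 uM in the 3× compound solution). Lysed cAMP measured by enzyme-fragment kit; EC50 = 50% inhibition of forskolin-stimulated cAMP (forskolin maximum = 100%), sigmoidal fit.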

[1] = target: T3, recombinant human cannabinoid receptor CB2 (Homo sapiens, UniProt P34972); assay: Cannabinoid receptor radioligand binding assay, [3H]-CP 55,940 displacement, hCB2
T3 construct: (cDNA clone) CNR0200000
Summary of the method: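 Membranes from hCB2-transfected cells, prepared by 1000×g then 40,000×g centrifugation, resuspended in 20 mM HEPES pH 7.4, 5 mM MgCl2, 1 mM EDTA, 10% sucrose.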

[2] = inhibition of forskolin-stimulated cAMP, HEK-293 cells, read-out: hCB1 EC50 (cAMP ag)
[3] = inhibition of forskolin-stimulated cAMP, HEK-293 cells

T1 sequence (P34972 whole entry): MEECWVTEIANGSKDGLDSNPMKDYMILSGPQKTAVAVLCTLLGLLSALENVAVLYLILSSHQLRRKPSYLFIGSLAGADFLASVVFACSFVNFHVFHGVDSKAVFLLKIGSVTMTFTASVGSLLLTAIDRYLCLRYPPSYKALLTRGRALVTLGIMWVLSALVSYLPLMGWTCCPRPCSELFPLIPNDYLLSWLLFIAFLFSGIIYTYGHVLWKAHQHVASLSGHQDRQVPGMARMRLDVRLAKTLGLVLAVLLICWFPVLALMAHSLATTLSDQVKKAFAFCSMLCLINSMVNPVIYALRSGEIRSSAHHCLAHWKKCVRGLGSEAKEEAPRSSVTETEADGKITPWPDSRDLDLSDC
T3 sequence (P34972 whole entry): as above
T2 sequence (P21554 whole entry): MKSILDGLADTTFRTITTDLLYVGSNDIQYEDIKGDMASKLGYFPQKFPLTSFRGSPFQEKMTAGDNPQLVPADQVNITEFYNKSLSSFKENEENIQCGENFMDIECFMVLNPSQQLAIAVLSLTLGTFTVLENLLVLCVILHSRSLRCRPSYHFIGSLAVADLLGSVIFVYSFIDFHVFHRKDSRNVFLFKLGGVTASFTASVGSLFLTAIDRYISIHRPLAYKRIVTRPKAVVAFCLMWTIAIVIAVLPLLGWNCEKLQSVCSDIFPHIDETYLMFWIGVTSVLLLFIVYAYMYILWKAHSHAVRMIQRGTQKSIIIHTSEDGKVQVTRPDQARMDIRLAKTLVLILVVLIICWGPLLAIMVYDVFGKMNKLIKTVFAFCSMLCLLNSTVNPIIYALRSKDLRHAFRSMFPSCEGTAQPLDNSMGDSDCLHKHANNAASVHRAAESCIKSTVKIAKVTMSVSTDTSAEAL

SMILES: COc1ccc(C(=O)c2cc3cc(C)n(CCN4CCOCC4)c3s2)cc1 [Compound 36, (4-methoxyphenyl)(5-methyl-6-(2-morpholinoethyl)-6H-thieno[2,3-b]pyrrol-2-yl)methanone]
- pEC50 (human CB2 (hCB2)): > 7.00
- pEC50 (human CB1 receptors): 5.00 to 6.00
- pIC50 [1]: > 7.00

SMILES: Cc1cc2cc(C(=O)c3cccc(Cl)c3Cl)sc2n1S(=O)(=O)N(C)C [Compound 41, 2-(2,3-Dichlorobenzoyl)-N,N,5-trimethyl-6H-thieno[2,3-b]pyrrole-6-sulfonamide]
- pEC50 (human CB2 (hCB2)): > 7.00
- pEC50 (human CB1 receptors; [2]): 5.00 to 6.00
- pIC50 [1]: > 7.00

SMILES: Cc1cc2cc(C(=O)c3ccccc3N)sc2n1CCN1CCOCC1 [Compound 48, (2-Aminophenyl)(5-methyl-6-(2-morpholinoethyl)-6H-thieno[2,3-b]pyrrol-2-yl)methanone]
- pEC50 (human CB2 (hCB2)): > 7.00
- pEC50 (human CB1 receptors; [2]): 5.00 to 6.00
- pIC50 [1]: > 7.00

SMILES: COCCn1c(C)cc2cc(C(=O)c3ccc(OC)cc3)sc21 [Compound 49, (6-(2-Methoxyethyl)-5-methyl-6H-thieno[2,3-b]pyrrol-2-yl)(4-methoxyphenyl)methanone]
- pEC50 (human CB2 (hCB2)): 6.00 to 7.00
- hCB1 EC50 (cAMP ag, nM) (human CB1 receptors; [3]): NS (NS means “Not Significant,” which means less than 30% agonist activity when compared to the positive control.)
- pIC50 [1]: 5.00 to 6.00

SMILES: COc1ccc(C(=O)c2cc3cc(C)n(CCN4CCOC4=O)c3s2)cc1 [Compound 50, 3-(2-(2-(4-Methoxybenzoyl)-5-methyl-6H-thieno[2,3-b]pyrrol-6-yl)ethyl)oxazolidin-2-one]
- pEC50 (human CB2 (hCB2)): 5.00 to 6.00
- hCB1 EC50 (cAMP ag, nM) (human CB1 receptors; [3]): NS (NS means “Not Significant,” which means less than 30% agonist activity when compared to the positive control.)
- pIC50 [1]: 5.00 to 6.00

SMILES: CCOc1ccc(C(=O)c2cc3cc(C)n(CCN4CCOCC4)c3s2)cc1 [Compound 55, (4-Ethoxyphenyl)(5-methyl-6-(2-morpholinoethyl)-6H-thieno[2,3-b]pyrrol-2-yl)methanone]
- pEC50 (human CB2 (hCB2)): > 7.00
- pEC50 (human CB1 receptors; [2]): 5.00 to 6.00
- pIC50 [1]: 6.00 to 7.00

SMILES: Cc1cc2cc(C(=O)c3ccc(N(C)C)cc3)sc2n1CCN1CCOCC1 [Compound 59, (4-(Dimethylamino)phenyl)(5-methyl-6-(2-morpholinoethyl)-6H-thieno[2,3-b]pyrrol-2-yl)methanone]
- pEC50 (human CB2 (hCB2)): 6.00 to 7.00
- hCB1 EC50 (cAMP ag, nM) (human CB1 receptors; [3]): NS (NS means “Not Significant,” which means less than 30% agonist activity when compared to the positive control.)
- pIC50 [1]: 5.00 to 6.00

SMILES: Cc1cc2cc(C(=O)c3ccc(F)cc3Cl)sc2n1CCN1CCOCC1 [Compound 64, (2-Chloro-4-fluorophenyl)(5-methyl-6-(2-morpholinoethyl)-6H-thieno[2,3-b]pyrrol-2-yl)methanone]
- pEC50 (human CB2 (hCB2)): > 7.00
- pEC50 (human CB1 receptors; [2]): 6.00 to 7.00
- pIC50 [1]: > 7.00

SMILES: Cc1cc2cc(C(=O)c3ccc(OC(F)(F)F)cc3)sc2n1CCN1CCOCC1 [Compound 65, (5-Methyl-6-(2-morpholinoethyl)-6H-thieno[2,3-b]pyrrol-2-yl)(4-(trifluoromethoxy)phenyl)methanone]
- pEC50 (human CB2 (hCB2)): 6.00 to 7.00
- hCB1 EC50 (cAMP ag, nM) (human CB1 receptors; [3]): NS (NS means “Not Significant,” which means less than 30% agonist activity when compared to the positive control.)
- pIC50 [1]: 6.00 to 7.00

SMILES: COc1ccc(C(=O)c2cc3cc(C)n(CCN4CCOCC4)c3s2)c(F)c1 [Compound 68, (2-Fluoro-4-methoxyphenyl)(5-methyl-6-(2-morpholinoethyl)-6H-thieno[2,3-b]pyrrol-2-yl)methanone]
- pEC50 (human CB2 (hCB2)): > 7.00
- pEC50 (human CB1 receptors; [2]): 5.00 to 6.00
- pIC50 [1]: > 7.00

SMILES: COc1ccc(C(=O)c2cc3cc(C)n(CCNS(C)(=O)=O)c3s2)cc1 [Compound 71, N-(2-(2-(4-Methoxybenzoyl)-5-methyl-6H-thieno[2,3-b]pyrrol-6-yl)ethyl)methanesulfonamide]
- pEC50 (human CB2 (hCB2)): 6.00 to 7.00
- hCB1 EC50 (cAMP ag, nM) (human CB1 receptors; [3]): NS (NS means “Not Significant,” which means less than 30% agonist activity when compared to the positive control.)
- pIC50 [1]: 5.00 to 6.00

SMILES: CCOC(=O)CCn1c(C)cc2cc(C(=O)c3ccc(OC)cc3)sc21 [Compound 72, Ethyl 3-(2-(4-methoxybenzoyl)-5-methyl-6H-thieno[2,3-b]pyrrol-6-yl)propanoate]
- pEC50 (human CB2 (hCB2)): 6.00 to 7.00
- hCB1 EC50 (cAMP ag, nM) (human CB1 receptors; [3]): NS (NS means “Not Significant,” which means less than 30% agonist activity when compared to the positive control.)
- pIC50 [1]: 5.00 to 6.00

SMILES: COc1ccc(C(=O)c2cc3cc(C)n(CCCNC(=O)C(F)(F)F)c3s2)cc1 [Compound 76, 2,2,2-Trifluoro-N-(3-(2-(4-methoxybenzoyl)-5-methyl-6H-thieno[2,3-b]pyrrol-6-yl)propyl)acetamide]
- pEC50 (human CB2 (hCB2)): 6.00 to 7.00
- hCB1 EC50 (cAMP ag, nM) (human CB1 receptors; [3]): NS (NS means “Not Significant,” which means less than 30% agonist activity when compared to the positive control.)
- pIC50 [1]: 6.00 to 7.00

SMILES: COc1ccc(C(=O)c2cc3cc(C)n(CCC(C)(C)O)c3s2)cc1 [Compound 77, (6-(3-Hydroxy-3-methylbutyl)-5-methyl-6H-thieno[2,3-b]pyrrol-2-yl)(4-methoxyphenyl)methanone]
- pEC50 (human CB2 (hCB2)): 6.00 to 7.00
- pEC50 (human CB1 receptors; [2]): 5.00 to 6.00
- pIC50 [1]: 5.00 to 6.00

SMILES: Cc1ccc(C(=O)c2cc3cc(C)n(CCN4CCOCC4)c3s2)c(F)c1 [Compound 80, (2-Fluoro-4-methylphenyl)(5-methyl-6-(2-morpholinoethyl)-6H-thieno[2,3-b]pyrrol-2-yl)methanone]
- pEC50 (human CB2 (hCB2)): > 7.00
- hCB1 EC50 (cAMP ag, nM) (human CB1 receptors; [3]): NS (NS means “Not Significant,” which means less than 30% agonist activity when compared to the positive control.)
- pIC50 [1]: 6.00 to 7.00

SMILES: COc1ccc(C(=O)c2cc3cc(C)n(CCN4CCCC4)c3s2)cc1 [Compound 83, (4-Methoxyphenyl)(5-methyl-6-(2-(pyrrolidin-1-yl)ethyl)-6H-thieno[2,3-b]pyrrol-2-yl)methanone]
- pEC50 (human CB2 (hCB2)): 6.00 to 7.00
- pEC50 (human CB1 receptors; [2]): 5.00 to 6.00
- pIC50 [1]: 6.00 to 7.00

SMILES: Cc1ccc(C(=O)c2cc3cc(C)n(CCN4CCOCC4)c3s2)c(Cl)c1 [Compound 86, (2-Chloro-4-methylphenyl)(5-methyl-6-(2-morpholinoethyl)-6H-thieno[2,3-b]pyrrol-2-yl)methanone]
- pEC50 (human CB2 (hCB2)): > 7.00
- pEC50 (human CB1 receptors; [2]): 5.00 to 6.00
- pIC50 [1]: > 7.00

SMILES: COc1ccc(C(=O)c2cc3cc(C)n(CCN4CCOCC4)c3s2)c(C)c1 [Compound 88, (4-Methoxy-2-methylphenyl)(5-methyl-6-(2-morpholinoethyl)-6H-thieno[2,3-b]pyrrol-2-yl)methanone]
- pEC50 (human CB2 (hCB2)): > 7.00
- pEC50 (human CB1 receptors; [2]): 6.00 to 7.00
- pIC50 [1]: > 7.00

SMILES: CCOc1ccc(C(=O)c2cc3cc(C)n(CCN4CCOCC4)c3s2)c(F)c1 [Compound 89, (4-Ethoxy-2-fluorophenyl)(5-methyl-6-(2-morpholinoethyl)-6H-thieno[2,3-b]pyrrol-2-yl)methanone]
- pEC50 (human CB2 (hCB2)): > 7.00
- pEC50 (human CB1 receptors; [2]): 5.00 to 6.00
- pIC50 [1]: 6.00 to 7.00

SMILES: COc1ccc(C(=O)c2cc3cc(C)n(CCN4CCCCC4)c3s2)c(Cl)c1 [Compound 90, (2-Chloro-4-methoxyphenyl)(5-methyl-6-(2-(piperidin-1-yl)ethyl)-6H-thieno[2,3-b]pyrrol-2-yl)methanone]
- pEC50 (human CB2 (hCB2)): > 7.00
- pEC50 (human CB1 receptors; [2]): 6.00 to 7.00
- pIC50 [1]: > 7.00

SMILES: COc1ccc(C(=O)c2cc3cc(C)n(CCN4CCCC4)c3s2)c(F)c1 [Compound 92, (2-Fluoro-4-methoxyphenyl)(5-methyl-6-(2-(pyrrolidin-1-yl)ethyl)-6H-thieno[2,3-b]pyrrol-2-yl)methanone]
- pEC50 (human CB2 (hCB2)): > 7.00
- pEC50 (human CB1 receptors; [2]): 5.00 to 6.00
- pIC50 [1]: 6.00 to 7.00
